Results on three compounds are retold here after patent publication EP0322251A2, “Benzothiopyran derivatives” (BEECHAM GROUP PLC, priority 1987, dated 1989).

The test system of this experiment is Spontaneously hypertensive rats. Nature of the experiment: Blood pressure lowering activity, tail cuff method. The experiment is classed as in vivo. As for the experimental part:
Blood Pressure Lowering Activity
Systolic blood pressures were recorded by a modification of the tail cuff method described by I.M. Claxton, M.G. Palfreyman, R.H. Poyser, R.L. Whiting, European Journal of Pharmacology, 37, 179 (1976). A W+W BP recorder, model 8005 was used to display pulses. Prior to all measurements rats were placed in a heated environment (33.5 ± 0.5°C) before transfer to a restraining cage. Each determination of blood pressure was the mean of at least 6 readings. Spontaneously hypertensive rats (ages 12-18 weeks) with systolic blood pressures >180 mmHg were considered hypertensive.

`Cc1ccc2c(c1)C(N1CCCC1=O)=CC(C)(C)S2(=O)=O` [Example 2, 4-(2-Oxopyrrolidin-1-yl)-2,2,6-trimethyl-2H-1-benzothiapyran-1,1-dioxide]: the “% Change in Systolic Blood Pressure” value (dose 10 mg/kg, 1 hour post dose) is listed as -50 ± 2 (n=5) %; the “% Change in Systolic Blood Pressure” value (dose 10 mg/kg, 2 hours post dose) is reported as -34 ± 4 (n=5) %; the “% Change in Systolic Blood Pressure” value (dose 10 mg/kg, 4 hours post dose) is recorded as -22 ± 3 (n=4) %; the “% Change in Systolic Blood Pressure” value (dose 10 mg/kg, 6 hours post dose) is -15 ± 2 (n=4) %.
As for `Cc1ccc2c(c1)C(N1CCCCC1=O)[C@H](O)C(C)(C)S2` (stereo partly drawn) [Example 1, Trans 3,4-Dihydro-4-(2-oxopiperidin-1-yl)-2,2,6-trimethyl-2H-1-benzothiapyran-3-ol], the “% Change in Systolic Blood Pressure” value runs as follows: (dose 1 mg/kg, 1 hour post dose) -22 ± 5 (n=6) %; (dose 1 mg/kg, 2 hours post dose) -17 ± 6 (n=6) %; (dose 1 mg/kg, 4 hours post dose) -12 ± 11 (n=6) %.
As to `Cc1ccc2c(c1)[C@@H](N1CCCCC1=O)[C@H](O)C(C)(C)S2(=O)=O` (relative stereo) [Example 3, Trans 3.4-dihydro-4-(2-oxopiperidin-1-yl)-2,2,6-trimethyl-2H-1-benzothiapyran-3-ol-1,1-dioxide], the “% Change in Systolic Blood Pressure” value (dose 30 mg/kg, 1 hour post dose) is -25 (n=2) %; the “% Change in Systolic Blood Pressure” value (dose 30 mg/kg, 2 hours post dose) is -31 ± 7 (n=3) %; the “% Change in Systolic Blood Pressure” value (dose 30 mg/kg, 4 hours post dose) was -16 ± 2 (n=3) %; the “% Change in Systolic Blood Pressure” value (dose 30 mg/kg, 6 hours post dose) is on record as -14 ± 3 (n=3) %.
